This note sets out measurements from patent publication US20240067693A1, “POLYPEPTIDES AND USES THEREOF” (MEDIMMUNE LIMITED, priority 2020, published 2024).

Data set [1] concerns the target T1, human amylin receptor (calcitonin receptor co-expressed with receptor activity modifying protein, RAMP3) (hAMYR3) (Homo sapiens, UniProt O60896+P30988).
T1 construct: expressed in transfected cells
T1 sequence (P30988 25-474): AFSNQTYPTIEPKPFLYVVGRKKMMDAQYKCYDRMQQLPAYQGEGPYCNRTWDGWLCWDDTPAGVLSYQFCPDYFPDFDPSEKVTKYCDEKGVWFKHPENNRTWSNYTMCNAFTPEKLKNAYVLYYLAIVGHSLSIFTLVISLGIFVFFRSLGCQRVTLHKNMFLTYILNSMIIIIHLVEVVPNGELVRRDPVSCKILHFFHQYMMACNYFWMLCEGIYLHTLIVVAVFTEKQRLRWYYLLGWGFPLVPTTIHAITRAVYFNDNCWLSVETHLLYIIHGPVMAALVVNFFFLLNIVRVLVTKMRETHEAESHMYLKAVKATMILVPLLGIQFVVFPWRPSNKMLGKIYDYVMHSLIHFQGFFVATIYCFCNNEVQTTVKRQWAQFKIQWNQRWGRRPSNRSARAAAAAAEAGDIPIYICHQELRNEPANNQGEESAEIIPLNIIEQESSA
T1 sequence (O60896 24-148 partner): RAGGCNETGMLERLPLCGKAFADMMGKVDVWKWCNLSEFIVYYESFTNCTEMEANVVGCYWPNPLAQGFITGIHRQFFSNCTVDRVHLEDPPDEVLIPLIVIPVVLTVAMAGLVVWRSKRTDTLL
The data set is described as follows: cAMP production in 1321N1 cells with stable recombinant expression of human amylin receptor (hAMYR3). It counts as cell-based. As to conditions: for Ratio (selectivity hAMYR vs hCTR, ratio of EC50 values at the two receptors): EC50 hCTR / EC50 hAMYR3; for EC50: cAMP, 1321N1 cells, assay buffer with 0.1% BSA, read-out: EC50 (pM) hAMYR3. The gist of the method:
(§1)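 Receptor-expressing cells (human receptors in 1321N1, rat receptors in HEK) incubated 30 min at room temperature with peptide in HBSS/HEPES pH 7.4, 0.1% BSA, 0.5 mM IBMX. cAMP read by HTRF; EC50 from 4-parameter fit as % of maximal amylin or calcitonin response.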
On the technique in general: cAMP levels reflect the balance of adenylyl cyclase and phosphodiesterase activity.

In data set [2] the target is T2, human calcitonin receptor (hCTR) (Homo sapiens, UniProt P30988).
T2 construct: expressed in transfected cells
T2 sequence (P30988 25-474): T1 sequence (P30988 25-474)
The data set is described as follows: cAMP production in 1321N1 cells with stable recombinant expression of human calcitonin receptor (hCTR). It counts as cell-based. The note with it: cAMP, 1321N1 cells, assay buffer with 0.1% BSA; read-out: EC50 (pM) hCTR. The gist of the method: as §1

The target in data set [3] is T3, rat amylin receptor (calcitonin receptor co-expressed with receptor activity modifying protein, RAMP3) (Rat AMYR3) (Rattus norvegicus, UniProt P32214+Q9JJ73).
T3 construct: expressed in transfected cells
T3 sequence (P32214 25-516): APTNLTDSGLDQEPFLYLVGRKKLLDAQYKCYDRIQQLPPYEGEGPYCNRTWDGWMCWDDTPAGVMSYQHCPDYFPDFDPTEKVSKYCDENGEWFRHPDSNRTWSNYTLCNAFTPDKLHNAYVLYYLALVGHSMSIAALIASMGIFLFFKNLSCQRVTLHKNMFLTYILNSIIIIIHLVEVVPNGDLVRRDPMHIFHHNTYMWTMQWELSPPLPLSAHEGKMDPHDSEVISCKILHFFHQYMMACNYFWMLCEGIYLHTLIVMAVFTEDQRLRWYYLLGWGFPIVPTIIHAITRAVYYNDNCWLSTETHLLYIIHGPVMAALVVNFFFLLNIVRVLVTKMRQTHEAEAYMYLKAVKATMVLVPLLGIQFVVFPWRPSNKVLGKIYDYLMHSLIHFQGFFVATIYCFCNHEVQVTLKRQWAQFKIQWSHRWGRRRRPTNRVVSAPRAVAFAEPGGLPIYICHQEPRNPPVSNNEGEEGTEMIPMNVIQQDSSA
T3 sequence (Q9JJ73 23-147 partner): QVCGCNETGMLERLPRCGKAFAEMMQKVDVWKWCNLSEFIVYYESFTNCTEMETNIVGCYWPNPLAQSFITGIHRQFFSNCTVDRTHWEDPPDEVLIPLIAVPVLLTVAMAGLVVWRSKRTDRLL
The data set is described as follows: cAMP production in HEK cells with stable recombinant expression of rat amylin receptor (Rat AMYR3). It counts as cell-based. As to conditions: assay buffer with 0.1% BSA. As to the method:
(§2) The functional activities of lipidated pramlintide analogue peptides, such as cAMP production, were tested in 1321N1 cell line with stable recombinant expression of human calcitonin receptor (hCTR) or human amylin receptor (calcitonin receptor co-expressed with receptor activity modifying protein, RAMP3) (hAMYR3) or HEK cells with stable recombinant expression of rat calcitonin receptor (rat CTR) or rat amylin receptor (calcitonin receptor co-expressed with receptor activity modifying protein, RAMP3) (Rat AMYR3).
(§3) Cryopreserved cell stock was thawed rapidly in a water-bath, suspended in assay buffer (0.1% BSA (Sigma # A3059) in HBSS (Sigma # H8264) with 25 mM HEPES, pH 7.4 and containing 0.5 mM IB MX (Sigma# 17018)) and spun at 240×g for 5 minutes. Cells were re-suspended in assay buffer at a batch-dependent optimized concentration (e.g. hCTR cells at 0.125×10^5 cells/mL, hAMYR3 cells at 0.125×10^5 cells/mL, rat CTR cells at 1x10^5 cells/mL, rat AMYR3 at 2×10^5 cells/mL).
(§4) The test peptide stock was prepared in DMSO and diluted in assay buffer to reach stated concentrations and transferred in duplicates into a 384-black shallow well microtitre assay plate (Corning # 3676). Cells were added to the assay plate, incubated at room temperature for 30 minutes and the cAMP level measured using cAMP dynamic 2 HTRF kit (Cisbio, Cat # 62AM4PEJ), following the two step protocol as per manufacturer's recommendations. The plates were read on an Envision (Perkin Elmer) using excitation wavelength of 320 nm and emission wavelengths of 620nm & 665 nm.
(§5) Data was transformed to % Delta F as described in the manufacturer's guidelines and analyzed as percent activation of maximal amylin or calcitonin effect by 4-parameter logistic fit to determine EC50 values. The selectivity of a peptide to hAMYR vs hCTR is defined as a ratio of EC50 values at the two receptors.

In data set [4] the target is T4, rat calcitonin receptor (rat CTR) (Rattus norvegicus, UniProt P32214).
T4 construct: expressed in transfected cells
T4 sequence (P32214 25-516): T3 sequence (P32214 25-516)
The data set is described as follows: cAMP production in HEK cells with stable recombinant expression of rat calcitonin receptor (rat CTR). It counts as cell-based. As to conditions: assay buffer with 0.1% BSA. The protocol: as §2, §3, §4, §5

The test system of data set [5] is lean rats. The data set is described as follows: Rat acute food intake study. It counts as in vivo. The note with it: lean male Sprague Dawley rats, 20 nmol/kg subcutaneously. As to the method:
Male Sprague Dawley rats were obtained from Taconic Denmark, ApS at approximately 7 weeks of age. Rats were implanted with a microchip for identification, housed 4/cage with enrichment, free access to food and water, and allowed one week acclimatisation while non-invasive characterization was performed. Rats were on a 12:12 light:dark cycle that switches at 1pm:1am. Food intake was monitored via the HM2 system (Lafayette Instrument) that allows for monitoring in a home cage. As each rat enters an access tunnel to feed, an IR beam is broken, and the implanted microchip is read. Resulting changes to food weight is then assigned to the specific animal. Social order has shown no impact to overall feeding patterns and amounts.
Rats were sorted into groups based on Day -1 body weight and 24-hour accumulated food intake (n=7 per group). On Day 0 rats were weighed, then fasted for 6 hours. Thirty (30) minutes prior to the reintroduction of food, rats were dosed subcutaneously (5 mL/kg) with 20 nmol/kg of test compound or 60 nmol/kg peptide 1 (pramlintide) diluted in an appropriate vehicle, after which food was returned, and lights went out. Automated food intake was monitored for the following 3 days, and rats were weighed once per day.
Food intake per rat was batched into 1-hour intervals and integrated into Gubra's GubraView data management system. Discrete food intake data was exported into MS Excel from which cumulative food intake data was generated. Cumulative food intake data was then transposed into GraphPad Prism (v8.0.1) for analysis of dark period feeding

A short description of data set [6]: Pharmacokinetic determination via IV and SC administration in Sprague Dawley rats. As to conditions: male, rat, plasma, 20 nmol/kg.

Numbered stars: 1 amine (or outer) side, 2 acyl side, 3 side chain; on linkers, the order of the positions; unused ones are H or OH. Bridge positions count the residues as written; N and C are the ends. Square brackets hold non-standard residues; d marks the D form. Side chains are listed from the residue outwards. Peptide text beside a SMILES is read from it. * marks the point of attachment. C18 diacid = O=C(O)CCCCCCCCCCCCCCCCC(=O)*; γGlu = O=C(O)[C@H](CCC(=O)[*:2])N[*:1]; Aib = CC(C)(N)C(=O)O

For `CC[C@H](C)[C@H](NC(=O)[C@@H]1CCCN1C(=O)CNC(=O)[C@H](Cc1ccccc1)NC(=O)[C@H](CC(N)=O)NC(=O)C(C)(C)NC(=O)[C@H](CO)NC(=O)[C@H](CO)NC(=O)[C@H](Cc1c[nH]cn1)NC(=O)[C@H](CCCNC(=N)N)NC(=O)[C@H](CC(C)C)NC(=O)[C@H](Cc1ccccc1)NC(=O)[C@H](CC(N)=O)NC(=O)[C@H](C)NC(=O)[C@H](CC(C)C)NC(=O)[C@H](CCCNC(=N)N)NC(=O)[C@H](CCC(N)=O)NC(=O)[C@@H](NC(=O)[C@H](C)NC(=O)[C@@H]1CSSC[C@H](NC(=O)[C@H](CCCCN)NC(=O)[C@@H](N)CCCCNC(=O)CC[C@H](NC(=O)CCCCCCCCCCCCCCCCC(=O)O)C(=O)O)C(=O)N[C@@H](CC(N)=O)C(=O)N[C@@H]([C@@H](C)O)C(=O)N[C@@H](C)C(=O)N[C@@H]([C@@H](C)O)C(=O)N1)[C@@H](C)O)C(=O)N[C@@H](CC(C)C)C(=O)N1CCC[C@H]1C(=O)N1CCC[C@H]1C(=O)N[C@H](C(=O)N[C@@H](CCC(=O)O)C(=O)N[C@H](C(=O)NCC(=O)N[C@@H](CO)C(=O)N[C@@H](CC(N)=O)C(=O)N[C@H](C(=O)N[C@@H](Cc1ccc(O)cc1)C(N)=O)[C@@H](C)O)C(C)C)[C@@H](C)O` [Peptide 43, K(γE-C18diacid)K[CNTATC]ATQRLANFLRHSS(Aib)NFGPILPPTEVGSNTY-amide] (H-K([γGlu-C18 diacid])KCNTATCATQRLANFLRHSS[Aib]NFGPILPPTEVGSNTY-NH2; disulfide 3-8; N-terminus assumed), the “Ratio (selectivity hAMYR vs hCTR, ratio of EC50 values at the two receptors)” value in data set [1] is on record as 29. The 50% effective concentration (EC50) (as a rule, the midpoint of the concentration-response curve) was determined as 647 pM in data set [1], 19000 pM in data set [2], 14.5 pM in data set [3] and 3650 pM in data set [4]. For the same molecule, the “Cummulative food intake (% vehicle treated intake) At 12 h” value in data set [5] was 60.8 % vehicle treated intake. In addition, the “Cummulative food intake (% vehicle treated intake) At 24 h” value in data set [5] was 55.6 % vehicle treated intake. In addition, the “Cummulative food intake (% vehicle treated intake) At 48 h” value in data set [5] is 46.6 % vehicle treated intake. In addition, the half-life (commonly the time needed for the level to fall by half in the phase considered) in data set [6] (iv) was 558 min; in data set [6] (sc) it was 600 min.
As for `CC[C@H](C)[C@H](NC(=O)[C@@H]1CCCN1C(=O)CNC(=O)[C@H](Cc1ccccc1)NC(=O)[C@H](CC(N)=O)NC(=O)[C@H](CC(N)=O)NC(=O)[C@H](CO)NC(=O)[C@H](CO)NC(=O)[C@H](Cc1c[nH]cn1)NC(=O)C(C)(C)NC(=O)[C@H](CC(C)C)NC(=O)[C@H](Cc1ccccc1)NC(=O)[C@H](CC(N)=O)NC(=O)[C@H](C)NC(=O)[C@H](CC(C)C)NC(=O)[C@H](CCCNC(=N)N)NC(=O)[C@H](CCC(N)=O)NC(=O)[C@@H](NC(=O)[C@H](C)NC(=O)[C@@H]1CSSC[C@H](NC(=O)[C@@H](N)CCCCNC(=O)CC[C@H](NC(=O)CCCCCCCCCCCCCCCCC(=O)O)C(=O)O)C(=O)N[C@@H](CC(N)=O)C(=O)N[C@@H]([C@@H](C)O)C(=O)N[C@@H](C)C(=O)N[C@@H]([C@@H](C)O)C(=O)N1)[C@@H](C)O)C(=O)N[C@@H](CC(C)C)C(=O)N1CCC[C@H]1C(=O)N1CCC[C@H]1C(=O)N[C@H](C(=O)N[C@@H](CC(N)=O)C(=O)N[C@H](C(=O)NCC(=O)N[C@@H](CO)C(=O)N[C@@H](CC(N)=O)C(=O)N[C@H](C(=O)N[C@@H](Cc1ccc(O)cc1)C(N)=O)[C@@H](C)O)C(C)C)[C@@H](C)O` [Peptide 149] (H-K([γGlu-C18 diacid])CNTATCATQRLANFL[Aib]HSSNNFGPILPPTNVGSNTY-NH2; disulfide 2-7; N-terminus assumed), the “Ratio (selectivity hAMYR vs hCTR, ratio of EC50 values at the two receptors)” value in data set [1] is recorded as 9.2. Also, the concentration giving a half-maximal response (EC50) amounted to 130 pM in data set [1], 1200 pM in data set [2], 5.6 pM in data set [3] and 522 pM in data set [4]. Besides, the “Cummulative food intake (% vehicle treated intake) At 12 h” value in data set [5] is 31 % vehicle treated intake. In addition, the “Cummulative food intake (% vehicle treated intake) At 24 h” value in data set [5] came out at 31.8 % vehicle treated intake. The “Cummulative food intake (% vehicle treated intake) At 48 h” value in data set [5] is on record as 17.5 % vehicle treated intake. Also, the figures for the half-life in data set [6] (iv) and in data set [6] (sc) were 414 min and 558 min, respectively.
